Test in all cases: growth of human tumour cells (NCI), 48 h
Assay [1] has as its system UACC-62 melanoma.
Assay [2] has as its system HOP-62 NSCLC.
Assay [3] concerns HCC-2998 colon.
The test system of assay [4] is 786-0 renal.
Assay [5] has as its system TK-10 renal.
The subject of assay [6] is NCI-H522 lung.
For assay [7], the system named is MOLT-4 leukemia.
Assay [8] has as its system HOP-92 NSCLC.

Molecules are shown by their SMILES. Several values for one entry are separate records, joined by “and”; a condition that tells them apart may be missing. Equal values may be shown once.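 Cultured in 96-well plates, cells were exposed to test compound for 48 hours across five concentrations. Abbreviation: GI50, concentration required for 50% inhibition of growth. TGI denotes the concentration required for complete inhibition of growth.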

In the case of `O=[N+]([O-])c1ccc2c(c1)OCCOCCOc1ccc([N+](=O)[O-])cc1OCCOCCO2`, the TGI in assay [1], in assay [2], in assay [3], in assay [4], in assay [5] and in assay [6] was greater than 100 µM in each case. In assay [7], this compound registered a TGI greater than 100 µM.

Consider `O=C1C(c2ccc(Cl)cc2)=[N+]([O-])c2ccccc21`, for which the TGI in assay [1] is 32.2 µM; in assay [2], 78.5 µM; in assay [3] it was greater than 100 µM; in assay [4], 30.7 µM; in assay [5], 30.1 µM; in assay [6], 21.9 µM. Besides, the TGI in assay [7] was greater than 100 µM.

`O=C(c1ccccc1)c1ccc2cccc(O)c2n1`: the TGI was greater than 100 µM in assay [1]; greater than 100 µM in assay [2]; greater than 100 µM in assay [3]; 51.6 µM in assay [4]; greater than 100 µM in assay [5]; 39.8 µM in assay [6]. Besides, in assay [7], the TGI was determined as 70.9 µM.

For the compound `CC(C)(C)c1ccc(Oc2ccc(C#N)c(C#N)c2)c(C(C)(C)C)c1`, the TGI in assay [1], in assay [2], in assay [3], in assay [4], in assay [5] and in assay [8] was greater than 100 µM throughout. Besides, the results for the TGI in assay [6] and in assay [7] were 60.6 µM and 52.9 µM, respectively.

In the case of `Cc1ccc(C)c(NC(=O)CC2C(=O)Nc3ccccc3S2(=O)=O)c1` (stereo not drawn), the TGI in assay [1] is greater than 100 µM; in assay [3] it was greater than 100 µM; in assay [4], 56.5 µM; in assay [5] it was greater than 100 µM; in assay [8] it was greater than 100 µM; in assay [7], greater than 100 µM.

With `Cc1cc(N(CCC#N)CCC#N)ccc1N=Nc1ccccc1[N+](=O)[O-]`, the TGI in assay [1], in assay [2], in assay [3], in assay [4], in assay [5] and in assay [6] was greater than 100 µM throughout. Also, the TGI in assay [7] was greater than 100 µM.

Regarding `Brc1nc2c3ccccc3ncn2c1Br`, the TGI in assay [1] is 49.2 µM; in assay [2], greater than 100 µM; in assay [3] it was greater than 100 µM; in assay [4] it was greater than 100 µM; in assay [5], greater than 100 µM; in assay [8] it was 76.5 µM. Besides, the TGI was found to be 53.6 µM in assay [6] and 84.6 µM in assay [7].

Turning to `Cc1c2cc[n+](C)cc2c(C)c2c1[nH]c1ccc(OC(C)C)cc12`, the TGI was 8.04 µM and 12.7 µM in assay [1]; 19.9 µM and 27.3 µM in assay [2]; 9.95 µM and 20 µM in assay [3]; 9.1 µM and 32.5 µM in assay [4]; greater than 100 µM in assay [5]; 13.5 µM and 16.8 µM in assay [8]. The TGI in assay [6] is 3.8 µM and 8.1 µM; in assay [7] it was 20.4 µM and 17.1 µM. In addition, the GI50 is 1.23 µM and 3.13 µM in assay [2]; 2.87 µM and 6.45 µM in assay [3]; 0.223 µM and 1.41 µM in assay [4].

As to `COc1cccc(/C=C\c2cc(OC)c(OC)c(OC)c2)c1`, the TGI in assay [1] is greater than 100 µM; in assay [2] it was greater than 100 µM; in assay [3], 69.5 µM; in assay [4] it was 71.5 µM; in assay [8], greater than 100 µM; in assay [6], 1.58 µM. Also, the TGI in assay [7] worked out at 18 µM.

`COC(=O)[C@H](C)[C@H]1CC[C@@](C)([C@H]2CC3C(C)(C)[C@H]4CCC(C)=C[C@H]4C[C@@]3(C)O2)OO1` (stereo partly drawn): the TGI worked out at 35.6 µM in assay [1]; 37.1 µM in assay [2]; 18.7 µM in assay [3]; 20.2 µM in assay [4]; 28.9 µM in assay [5]; 12.4 µM in assay [8]. Moreover, the figures for the TGI in assay [6] and in assay [7] were 3.32 µM and 25.3 µM, respectively.

Take `CC1=CCP(C(F)(F)F)P(C(F)(F)F)C1` (stereo not drawn): the TGI in assay [1], in assay [2], in assay [3], in assay [4], in assay [5] and in assay [8] was greater than 100 µM throughout. For the same compound, the TGI in assay [6] and in assay [7] was greater than 100 µM in each case.

On to `Cc1ccc(C2=[N+]([O-])c3ccccc3C2=O)cc1`, for which the TGI in assay [1] is 33.1 µM; in assay [2], greater than 100 µM; in assay [3] it was greater than 100 µM; in assay [4], 69.4 µM; in assay [5], greater than 31.6 µM; in assay [8], 39.2 µM. The TGI in assay [6] is 32.4 µM; in assay [7], greater than 70 µM.

As for `COC1CCC2C(=O)CCCC2O1` (stereo not drawn), the TGI in assay [1], in assay [2], in assay [3], in assay [4], in assay [5] and in assay [8] was greater than 100 µM each time. Also, the TGI in assay [6] and in assay [7] was greater than 100 µM throughout.

For `CCCCCCC(O)C/C=C/CCCCCC/C(C(=O)OC)=C(/O)C(=O)OCC` (stereo not drawn), the TGI in assay [1], in assay [2], in assay [3], in assay [4], in assay [5] and in assay [8] was greater than 100 µM each time. Moreover, the TGI in assay [6] and in assay [7] was greater than 100 µM each time.

As for `O=C(Nc1ccccc1)O/N=C1/CCCC/C1=C\c1ccccc1`, the TGI was 30 µM in assay [1]; 40.4 µM in assay [2]; 41.7 µM in assay [3]; 32.5 µM in assay [4]; 31.7 µM in assay [5]; 46 µM in assay [8]. Further, the TGI came out at 30.4 µM in assay [6] and 26.5 µM in assay [7].

`O=C(Nc1cccc(C2=NCCN2)c1)c1ccc(OCCCOc2ccc(C(=O)Nc3cccc(C4=NCCN4)c3)cc2)cc1`: the GI50 was 1.41 µM in assay [1]; 4.45 µM in assay [2]; 3.69 µM in assay [4]; 13.2 µM in assay [5]; 1.25 µM in assay [8]; 3.86 µM in assay [7]. Moreover, the TGI was 45.7 µM in assay [1]; greater than 100 µM in assay [2]; greater than 100 µM in assay [4]; 35.3 µM in assay [5]; 7 µM in assay [8]; greater than 100 µM in assay [7].

Turning to `CN(OC(=O)CC(=O)c1ccccc1)C(=O)Cc1ccccc1`, the TGI in assay [1], in assay [2], in assay [4], in assay [5] and in assay [6] was greater than 100 µM in each case.

Source of the values: PubChem BioAssay (NCI).
